From ChEMBL document CHEMBL4725227, “Dual-Target Inhibitors Based on HDACs: Novel Antitumor Agents for Cancer Therapy” (J Med Chem, 2020)

Tests used:
[1] = biological target: Histone deacetylase; assay: Inhibition of HDAC (unknown origin); type: protein assay, Homo sapiens
[2] = test system: THP-1; assay: Growth inhibition of human THP-1 cells; type: functional
[3] = biological target: Histone deacetylase 1 (Homo sapiens, UniProt Q13547); assay: Inhibition of HDAC1 (unknown origin)
[4] = biological target: Bromodomain-containing protein 4 (Homo sapiens, UniProt O60885); assay: Inhibition of BRD4 (unknown origin)
[5] = biological target: Vascular endothelial growth factor receptor 2 (Homo sapiens, UniProt P35968); assay: Inhibition of VGFR2 (unknown origin)
[6] = test system: MCF7; assay: Cytotoxicity against human MCF7 cells assessed as reduction in cell viability by MTT assay; type: functional, cell-based
[7] = test system: MCF7; assay: Cytotoxicity against human MCF7 cells assessed as reduction in cell viability; type: functional, cell-based
[8] = test system: DU-145; assay: Cytotoxicity against human DU-145 cells assessed as reduction in cell viability; type: functional, cell-based
[9] = biological target: Epidermal growth factor receptor (Homo sapiens, UniProt P00533); assay: Inhibition of EGFR (unknown origin)
Epidermal growth factor receptor, sequence (P00533 whole entry): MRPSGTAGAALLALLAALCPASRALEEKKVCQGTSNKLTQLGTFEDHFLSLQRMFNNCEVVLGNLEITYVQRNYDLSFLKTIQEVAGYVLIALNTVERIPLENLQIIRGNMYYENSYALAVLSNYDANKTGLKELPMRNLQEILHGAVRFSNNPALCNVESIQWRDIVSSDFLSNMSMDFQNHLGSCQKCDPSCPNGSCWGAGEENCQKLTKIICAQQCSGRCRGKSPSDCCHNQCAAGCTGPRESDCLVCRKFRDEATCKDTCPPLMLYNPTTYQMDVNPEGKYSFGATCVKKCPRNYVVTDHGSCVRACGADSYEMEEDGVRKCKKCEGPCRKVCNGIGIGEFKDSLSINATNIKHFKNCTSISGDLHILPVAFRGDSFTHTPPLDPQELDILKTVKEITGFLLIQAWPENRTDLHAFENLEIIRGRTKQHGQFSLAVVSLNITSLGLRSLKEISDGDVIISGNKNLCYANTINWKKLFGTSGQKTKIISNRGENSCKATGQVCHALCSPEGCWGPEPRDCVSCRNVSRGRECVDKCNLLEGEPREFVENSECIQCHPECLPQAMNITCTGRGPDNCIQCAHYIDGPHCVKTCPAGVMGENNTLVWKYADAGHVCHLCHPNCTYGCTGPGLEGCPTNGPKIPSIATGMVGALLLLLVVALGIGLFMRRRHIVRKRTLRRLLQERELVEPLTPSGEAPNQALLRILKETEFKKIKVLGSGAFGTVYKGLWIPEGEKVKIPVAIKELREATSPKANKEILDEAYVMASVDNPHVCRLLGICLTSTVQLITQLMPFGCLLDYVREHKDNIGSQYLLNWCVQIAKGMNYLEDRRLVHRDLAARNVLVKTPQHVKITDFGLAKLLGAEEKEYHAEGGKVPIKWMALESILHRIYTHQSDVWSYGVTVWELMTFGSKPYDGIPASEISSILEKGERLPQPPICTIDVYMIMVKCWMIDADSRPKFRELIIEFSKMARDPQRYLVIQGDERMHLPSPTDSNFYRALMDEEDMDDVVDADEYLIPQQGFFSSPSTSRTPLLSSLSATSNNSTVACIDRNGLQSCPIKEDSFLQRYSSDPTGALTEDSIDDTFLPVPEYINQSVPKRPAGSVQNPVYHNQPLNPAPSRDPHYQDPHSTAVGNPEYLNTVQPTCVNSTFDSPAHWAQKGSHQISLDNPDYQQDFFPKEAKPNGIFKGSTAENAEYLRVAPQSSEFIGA

Histone deacetylase 1, sequence (Q13547 whole entry): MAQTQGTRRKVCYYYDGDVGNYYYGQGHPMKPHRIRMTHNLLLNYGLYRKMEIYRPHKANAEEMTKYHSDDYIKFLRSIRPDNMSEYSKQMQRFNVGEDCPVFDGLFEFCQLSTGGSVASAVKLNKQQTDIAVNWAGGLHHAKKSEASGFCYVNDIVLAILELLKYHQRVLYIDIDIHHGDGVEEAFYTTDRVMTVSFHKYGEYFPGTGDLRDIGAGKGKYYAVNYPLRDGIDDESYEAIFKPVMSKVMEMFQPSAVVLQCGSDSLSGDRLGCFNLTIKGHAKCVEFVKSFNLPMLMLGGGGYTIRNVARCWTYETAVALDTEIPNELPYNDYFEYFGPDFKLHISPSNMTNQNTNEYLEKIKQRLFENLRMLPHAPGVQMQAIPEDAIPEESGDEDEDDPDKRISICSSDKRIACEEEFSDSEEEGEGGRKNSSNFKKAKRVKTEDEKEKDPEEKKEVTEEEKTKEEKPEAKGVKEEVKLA
Vascular endothelial growth factor receptor 2, sequence (P35968 whole entry): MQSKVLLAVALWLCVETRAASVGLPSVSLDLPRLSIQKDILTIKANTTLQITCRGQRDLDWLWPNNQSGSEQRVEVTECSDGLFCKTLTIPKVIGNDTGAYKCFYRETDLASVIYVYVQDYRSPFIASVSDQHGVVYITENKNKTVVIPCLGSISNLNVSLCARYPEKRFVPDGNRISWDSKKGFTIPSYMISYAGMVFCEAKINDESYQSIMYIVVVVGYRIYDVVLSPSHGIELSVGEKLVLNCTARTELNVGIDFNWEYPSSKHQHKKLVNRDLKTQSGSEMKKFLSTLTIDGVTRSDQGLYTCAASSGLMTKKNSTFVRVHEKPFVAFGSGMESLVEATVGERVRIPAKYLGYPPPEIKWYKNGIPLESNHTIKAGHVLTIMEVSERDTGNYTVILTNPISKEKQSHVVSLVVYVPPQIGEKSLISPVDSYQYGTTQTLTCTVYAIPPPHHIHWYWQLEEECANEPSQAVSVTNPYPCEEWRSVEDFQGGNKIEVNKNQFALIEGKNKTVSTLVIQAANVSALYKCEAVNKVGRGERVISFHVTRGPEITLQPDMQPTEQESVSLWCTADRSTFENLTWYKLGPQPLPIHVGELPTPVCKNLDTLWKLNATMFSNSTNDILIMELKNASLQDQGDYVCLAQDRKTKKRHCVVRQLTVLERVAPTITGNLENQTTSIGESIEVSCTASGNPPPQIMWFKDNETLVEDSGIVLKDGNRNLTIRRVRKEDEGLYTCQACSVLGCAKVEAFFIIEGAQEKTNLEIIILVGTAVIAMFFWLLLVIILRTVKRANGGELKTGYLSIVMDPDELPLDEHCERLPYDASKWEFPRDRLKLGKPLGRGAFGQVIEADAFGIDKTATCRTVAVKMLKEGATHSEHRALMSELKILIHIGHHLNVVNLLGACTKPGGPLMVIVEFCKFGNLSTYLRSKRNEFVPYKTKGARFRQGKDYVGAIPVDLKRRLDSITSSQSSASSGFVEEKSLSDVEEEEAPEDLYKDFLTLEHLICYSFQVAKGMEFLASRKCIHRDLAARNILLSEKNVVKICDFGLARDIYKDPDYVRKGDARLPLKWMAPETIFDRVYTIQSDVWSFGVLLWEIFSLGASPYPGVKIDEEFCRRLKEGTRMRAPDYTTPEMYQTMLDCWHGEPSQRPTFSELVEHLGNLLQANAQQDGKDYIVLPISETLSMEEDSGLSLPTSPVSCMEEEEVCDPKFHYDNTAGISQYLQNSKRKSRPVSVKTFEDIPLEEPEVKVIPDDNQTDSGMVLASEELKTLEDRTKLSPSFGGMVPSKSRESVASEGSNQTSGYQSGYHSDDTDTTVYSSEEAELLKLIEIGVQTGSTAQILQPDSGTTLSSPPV

Row | Structure (SMILES) | IC50 [1] [nM] | GI50 [2] [µM] | also measured
1 | Cc1ccc(Cc2cn(CCCCCC(=O)NO)c3ccc(-c4c(C)noc4C)cc23)cc1 | 291 | 15.5 | –
2 | Cc1noc(C)c1-c1ccc2c(c1)c(Cc1ccccc1)cn2CCCCCCC(=O)NO | 291 | 15.5 | –
3 | COc1cc(OC)c2c(=O)[nH]c(-c3ccc(OC/C=C/C(=O)NO)cc3)nc2c1 | 291 | 15.5 | –
4 | Cn1cc(-c2ccnc(Nc3ccc(C(=O)NCCC(=O)NO)cc3)n2)c2ccccc21 | < 1000 | – | –
5 | COc1cc(C(=O)NCCCC(=O)NO)ccc1Nc1nccc(-c2cn(C)c3ccccc23)n1 | < 1000 | – | –
6 | COc1cc(OC)c2c(=O)[nH]c(-c3ccc(OCCCCCC(=O)NO)cc3)nc2c1 | 291 | 15.5 | –
7 | Cn1cc(-c2ccnc(Nc3ccc(C(=O)NCCCCCC(=O)NO)cc3)n2)c2ccccc21 | < 1000 | – | –
8 | COc1cc(OC)c2c(=O)[nH]c(-c3ccc(OCc4ccc(/C=C/C(=O)NO)cc4)cc3)nc2c1 | 291 | 15.5 | –
9 | Cn1cc(-c2ccnc(Nc3ccc(C(=O)NO)cc3)n2)c2ccccc21 | < 1000 | – | –
10 | COc1cc(OC)c2c(=O)[nH]c(-c3ccc(OCc4cc(C)c(/C=C/C(=O)NO)c(C)c4)cc3)nc2c1 | 291 | 15.5 | –
11 | COc1cc(O)c(C(=O)Nc2ccc(F)c(Cl)c2)cc1NC(=O)CCCCCC(=O)NO | < 1000 | – | –
12 | O=C(CCCCCC(=O)Nc1ccc(O)c(C(=O)Nc2cccc(F)c2)c1)NO | < 1000 | – | –
13 | Cc1ccc(Cc2cn(CCCCCCC(=O)NO)c3ccc(-c4c(C)noc4C)cc23)cc1 | 291 | 15.5 | –
14 | O=C(CCCCOc1ccccc1C(=O)Nc1cccc2[nH]cnc12)NO | 2700 | – | IC50 [3]: 150 nM; IC50 [4]: 260 nM
15 | Cc1noc(C)c1-c1ccc2c(c1)c(Cc1ccc(F)cc1)cn2CCCCCCC(=O)NO | – | – | IC50 [3]: 150 nM; IC50 [4]: 670 nM
16 | O=C(CCCCCC(=O)Nc1ccc(O)c(C(=O)Nc2ccccc2)c1)NO | < 1000 | – | –

Row | Structure (SMILES) | IC50 [1] [nM] | GI50 [2] [µM] | also measured
17 | Cc1ccccc1Cc1cn(CCCCCCC(=O)NO)c2ccc(-c3c(C)noc3C)cc12 | 291 | 15.5 | –
18 | Cc1sc2c(c1C)C(c1ccc(Cl)cc1)=N[C@@H](CC(=O)OC(C)(C)C)c1nnc(C)n1-2 | 291 | 15.5 | –
19 | Cc1noc(C)c1-c1ccc2c(c1)c(Cc1cccc(C(F)(F)F)c1)cn2CCCCCC(=O)NO | 291 | 15.5 | –
20 | C#Cc1cccc(NC(=O)c2cc(NC(=O)CCCCCCC(=O)NO)ccc2O)c1 | < 1000 | – | –
21 | COc1cc2ncnc(Nc3ccc(Br)cc3)c2cc1OCCCCCC(=O)NO | 2.2 | – | IC50 [5]: 74 nM; IC50 [6]: 0.85 µM
22 | Cc1noc(C)c1-c1ccc2c(c1)c(Cc1ccc(F)cc1)cn2CCCCCC(=O)NO | 291 | 15.5 | –
23 | Cc1ccccc1OS(=O)(=O)C1CC2OC1C(c1ccc(NC(=O)CCCCCCC(=O)NO)cc1)=C2c1ccc(O)cc1 (stereo not drawn) | – | – | IC50 [3]: 22 nM; IC50 [7]: 7.9 µM; IC50 [8]: > 100 µM
24 | O=C(CCCCCC(=O)Nc1ccc(O)c(C(=O)Nc2ccc(F)c(F)c2)c1)NO | < 1000 | – | –
25 | COc1cc(OC)c2c(=O)[nH]c(-c3ccc(OCCCCCCCC(=O)NO)cc3)nc2c1 | 291 | 15.5 | –
26 | C#Cc1cccc(NC(=O)c2cc(OCCCCCCC(=O)NO)ccc2O)c1 | < 1000 | – | –
27 | O=C(CCCCCCC(=O)Nc1ccccc1)NO [VORINOSTAT] | – | – | IC50 [9]: 900 nM
28 | C#Cc1cccc(NC(=O)c2cc(NC(=O)CCCCCC(=O)NO)c(OC)cc2O)c1 | < 1000 | – | –
29 | Cc1ccccc1Cc1cn(CCCCCC(=O)NO)c2ccc(-c3c(C)noc3C)cc12 | 291 | 15.5 | –
30 | COc1cc(OC)c2c(=O)[nH]c(-c3cc(C)c(OCCCCC(=O)NO)c(C)c3)nc2c1 | – | – | IC50 [3]: 150 nM; IC50 [4]: 670 nM
31 | Cn1cc(-c2ccnc(Nc3ccc(C(=O)NCCCC(=O)NO)cc3)n2)c2ccccc21 | < 1000 | – | –
32 | COc1cc2/c(=N/c3ccc(Br)cc3F)nc[nH]c2cc1OCC1CCN(C)CC1 [VANDETANIB] | – | – | IC50 [6]: 18.5 µM
